According to US20110045101A1, “FUNGICIDAL SUBSTITUTED AZOLES” (E.I. Du Pont De Nemours and Company, priority 2009, published 2011):
Read-outs that look alike come from different tables or passages of the source.

What was measured:
Phytophthora infestans = type: in vivo; settings: 200 ppm, 100 = 100% disease control
Septoria nodorum = experiment: Test F: wheat glume blotch on wheat seedlings, sprayed the day before inoculation, visual disease rating; type: in vivo; settings: 100 = 100% disease control; for Test F disease control rating / pest or weed control at 200 ppm: 200 ppm
Procedure, shortened: (§1)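 200 ppm run-off spray (500 g/ha equivalent); * = 40 ppm. Vehicle: acetone/water 50/50, 250 ppm Trem® 014.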

[1] = tested on: Erysiphe graminis f. sp. tritici; experiment: Test J: wheat powdery mildew on wheat seedlings, sprayed the day before inoculation, visual disease rating; type: in vivo; settings: 100 = 100% disease control; for Test J disease control rating / pest or weed control at 200 ppm: 200 ppm
Procedure, shortened: as §1

Botrytis cinerea = experiment: Test C: tomato Botrytis on tomato seedlings, sprayed the day before inoculation, visual disease rating; type: in vivo; settings: 100 = 100% disease control; for Test C disease control rating / pest or weed control at 200 ppm: 200 ppm
Procedure, shortened: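 Tomato seedlings were sprayed until run-off with test suspensions in acetone/water (50/50) carrying 250 ppm polyhydric alcohol ester surfactant. Standard dose was 200 ppm, with 40 ppm for marked entries.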

Septoria tritici = experiment: Test G: wheat leaf blotch on wheat seedlings, sprayed the day before inoculation, visual disease rating; type: in vivo; settings: 100 = 100% disease control; for Test G disease control rating / pest or weed control at 200 ppm: 200 ppm
Procedure, shortened: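 Wheat seedlings were sprayed with compound suspensions, 200 ppm unless starred (40 ppm). After next-day spore inoculation, plants spent 48 h saturated at 24° C, then 19 days at 20° C, when disease was rated visually.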

Alternaria solani = experiment: Test D: tomato early blight, sprayed the day before inoculation, visual disease rating; type: in vivo; settings: 100 = 100% disease control; for Test D disease control rating / pest or weed control at 200 ppm: 200 ppm
Procedure, shortened: as §1

[2] = tested on: Puccinia recondita f. sp. tritici; experiment: Test I: wheat leaf rust on wheat seedlings, sprayed the day before inoculation, visual disease rating; type: in vivo; settings: 100 = 100% disease control; for Test I disease control rating / pest or weed control at 200 ppm: 200 ppm
Procedure, shortened: as §1

Plasmopara viticola = experiment: Test A: grape downy mildew, test suspension sprayed after inoculation of grape seedlings, visual disease rating; type: in vivo; settings: 200 ppm, 100 = 100% disease control
Text: General protocol for preparing test suspensions for Tests A-J: The test compounds were first dissolved in acetone in an amount equal to 3% of the final volume and then suspended at the desired concentration (in ppm) in acetone and purified water (50/50 mix) containing 250 ppm of the surfactant Trem® 014 (polyhydric alcohol esters). The resulting test suspensions were then used in tests A-J. Spraying a 200 ppm test suspension to the point of run-off on the test plants was the equivalent of a rate of 500 g/ha. […] Grape seedlings were inoculated with a spore suspension of Plasmopara viticola (the causal agent of grape downy mildew) and incubated in a saturated atmosphere at 20° C. for 24 h. After a short drying period, the grape seedlings were sprayed with the test suspension to the point of run-off and then moved to a growth chamber at 20° C. for 5 days, after which time the grape seedlings were placed back into a saturated atmosphere at 20° C. for 24 h. Upon removal, visual disease ratings were made. […] A dash (-) indicates no test results.

Rhizoctonia solani = experiment: Test B: turf brown patch on bentgrass seedlings, sprayed the day before inoculation, visual disease rating; type: in vivo; settings: 200 ppm, 100 = 100% disease control
Text: General protocol for preparing test suspensions for Tests A-J: The test compounds were first dissolved in acetone in an amount equal to 3% of the final volume and then suspended at the desired concentration (in ppm) in acetone and purified water (50/50 mix) containing 250 ppm of the surfactant Trem® 014 (polyhydric alcohol esters). The resulting test suspensions were then used in tests A-J. Spraying a 200 ppm test suspension to the point of run-off on the test plants was the equivalent of a rate of 500 g/ha. […] The test suspension was sprayed to the point of run-off on bentgrass (Agrostis sp.) seedlings. […] A dash (-) indicates no test results. All results are for 200 ppm except where followed by “*”, which indicates 40 ppm.

[3] = 0 = no control relative to controls
[4] = Parastagonospora nodorum, 264 h, 0 = no control relative to controls
[5] = Blumeria graminis, 168 h, 0 = no control relative to controls
[6] = Botrytis cinerea, 120 h, 0 = no control relative to controls
[7] = Zymoseptoria tritici, 504 h, 0 = no control relative to controls
[8] = Alternaria solani, 168 h, 0 = no control relative to controls
[9] = Puccinia recondita, 168 h, 0 = no control relative to controls

Compound	Test E disease control rating (Phytophthora infestans; [3]) [%]	Test F disease control rating (Septoria nodorum; [3]) [%]	Test J disease control rating [1, 3] [%]	Test C disease control rating (Botrytis cinerea; [3]) [%]	Test G disease control rating (Septoria tritici; [3]) [%]	Test D disease control rating (Alternaria solani; [3]) [%]	Test I disease control rating [2, 3] [%]	Test A disease control rating (Plasmopara viticola; [3]) [%]	Test B disease control rating (Rhizoctonia solani; [3]) [%]	Test F disease control rating (Septoria nodorum; 0 = no control) [%]	Test J disease control rating ([1]; 0 = no control) [%]	Test C disease control rating (Botrytis cinerea; 0 = no control) [%]	Test G disease control rating (Septoria tritici; 0 = no control) [%]	Test D disease control rating (Alternaria solani; 0 = no control) [%]	Test I disease control rating ([2]; 0 = no control) [%]	Test A disease control rating (Plasmopara viticola; 0 = no control) [%]	Test B disease control rating (Rhizoctonia solani; 0 = no control) [%]	further results
2-bromo-1-(4-chlorophenyl)-5-(2,6-difluorophenyl)-2-methyl-1H-imidazole [Compound 740]	0	100	100	100	100	100	100	37	99	–	–	–	–	–	–	–	–	–
Fc1cc(F)c(-c2c(Cl)ncn2-c2ccc(Cl)cc2)c(F)c1 [Compound 1, 4-chloro-1-(4-chlorophenyl)-5-(2,4,6-trifluorophenyl)-1H-imidazole]	–	–	–	–	–	–	–	–	–	–	–	–	–	–	–	–	–	pest or weed control at 40 ppm (Septoria nodorum; Parastagonospora nodorum, 264 h, 40 ppm (marked *)): 0%; pest or weed control at 40 ppm ([1]; Blumeria graminis, 168 h, 40 ppm (marked *)): 99%; pest or weed control at 40 ppm (Botrytis cinerea; Botrytis cinerea, 120 h, 40 ppm (marked *)): 99%; pest or weed control at 40 ppm (Septoria tritici; Zymoseptoria tritici, 504 h, 40 ppm (marked *)): 93%; pest or weed control at 40 ppm (Alternaria solani; Alternaria solani, 168 h, 40 ppm (marked *)): 94%; pest or weed control at 40 ppm ([2]; Puccinia recondita, 168 h, 40 ppm (marked *)): 16%; melting point: 102 to 104 °C
Cc1nc(Cl)c(-c2c(F)cccc2F)n1-c1ccc(Cl)cc1 [Compound 2, 4-chloro-1-(4-chlorophenyl)-5-(2,6-difluorophenyl)-2-methyl-1H-imidazole]	–	–	–	–	–	–	–	–	65	–	–	–	–	–	–	–	–	pest or weed control at 200 ppm (Septoria nodorum; [4]): 100%; pest or weed control at 200 ppm [1, 5]: 100%; pest or weed control at 200 ppm (Botrytis cinerea; [6]): 99%; pest or weed control at 200 ppm (Septoria tritici; [7]): 100%; pest or weed control at 200 ppm (Alternaria solani; [8]): 100%; pest or weed control at 200 ppm [2, 9]: 100%; melting point: 143 to 145 °C
Fc1cccc(F)c1-c1c(Cl)nc(Cl)n1-c1ccc(Cl)cc1 [Compound 3, 2,4-dichloro-1-(4-chlorophenyl)-5-(2,6-difluorophenyl)-1H-imidazole]	–	–	–	–	–	–	–	–	99	–	–	–	–	–	–	–	–	pest or weed control at 200 ppm (Septoria nodorum; [4]): 99%; pest or weed control at 200 ppm [1, 5]: 100%; pest or weed control at 200 ppm (Botrytis cinerea; [6]): 99%; pest or weed control at 200 ppm (Septoria tritici; [7]): 100%; pest or weed control at 200 ppm (Alternaria solani; [8]): 100%; pest or weed control at 200 ppm [2, 9]: 99%; melting point: 123 to 125 °C
Cc1ncc(-c2ccc(F)cc2)n1-c1ccc(Cl)cc1 [Compound 4, 1-(4-chlorophenyl)-5-(4-fluorophenyl)-2-methyl-1H-imidazole]	0	–	–	–	–	–	–	0	18	–	–	–	–	–	–	–	–	pest or weed control at 200 ppm (Septoria nodorum; [4]): 0%; pest or weed control at 200 ppm [1, 5]: 94%; pest or weed control at 200 ppm (Botrytis cinerea; [6]): 67%; pest or weed control at 200 ppm (Septoria tritici; [7]): 93%; pest or weed control at 200 ppm (Alternaria solani; [8]): 0%; pest or weed control at 200 ppm [2, 9]: 79%
Cc1nc(Cl)c(-c2ccc(F)cc2)n1-c1ccc(Cl)cc1 [Compound 5, 4-chloro-1-(4-chlorophenyl)-5-(4-fluorophenyl)-2-methyl-1H-imidazole]	0	–	–	–	–	–	–	0	38	–	–	–	–	–	–	–	–	pest or weed control at 200 ppm (Septoria nodorum; [4]): 0%; pest or weed control at 200 ppm [1, 5]: 99%; pest or weed control at 200 ppm (Botrytis cinerea; [6]): 98%; pest or weed control at 200 ppm (Septoria tritici; [7]): 100%; pest or weed control at 200 ppm (Alternaria solani; [8]): 99%; pest or weed control at 200 ppm [2, 9]: 88%
Cc1nn(C)c(-c2ccc(Cl)c(F)c2)c1-c1c(F)cccc1F [compound 67]	0	0	99	44	80	99	0	7	98	–	–	–	–	–	–	–	–	–
Fc1ccc(-n2cnc(Cl)c2-c2ccc(F)cc2Cl)cc1 [compound 178]	–	–	–	–	–	–	–	–	–	0	100	99	100	99	74	9	0	–
Cc1ccc(-n2cnc(Cl)c2-c2ccc(F)cc2Cl)cc1 [compound 179]	–	–	–	–	–	–	–	–	–	0	99	99	98	9	99	0	0	Test E disease control rating (Phytophthora infestans; 0 = no control): 0%
Fc1ccc(-n2cnc(Cl)c2-c2c(F)cccc2Cl)cc1 [compound 180]	–	–	–	–	–	–	–	–	–	0	100	99	98	99	99	0	88	–
Fc1ccc(-c2c(Cl)ncn2-c2ccc(Cl)c(F)c2)c(Cl)c1 [compound 191]	–	–	–	–	–	–	–	–	–	0	93	99	97	26	80	0	0	Test E disease control rating (Phytophthora infestans; 0 = no control): 29%
Fc1cc(-n2cnc(Cl)c2-c2c(F)cccc2Cl)ccc1Cl [compound 192]	–	–	–	–	–	–	–	–	–	0	99	99	94	16	84	0	21	Test E disease control rating (Phytophthora infestans; 0 = no control): 0%
COc1cc(F)c(-c2c(-c3ccc(Cl)cc3)c(OC)nn2C)c(F)c1 [compound 578]	0	0	98	98	100	37	74	0	58	–	–	–	–	–	–	–	–	–
COc1cc(F)c(-c2c(-c3ccc(F)cc3)c(OC)nn2C)c(F)c1 [compound 579]	0	0	100	99	100	97	93	0	92	–	–	–	–	–	–	–	–	–
COc1ccc(-c2c(OC)nn(C)c2-c2c(F)cc(OC)cc2F)cc1 [compound 580]	0	0	90	98	100	0	84	0	88	–	–	–	–	–	–	–	–	–
Cc1cc(C)nc(-c2cnnn2-c2cc(Cl)cc(Cl)c2)n1 [compound 644]	0	0	0	94	0	0	0	0	–	–	–	–	–	–	–	–	–	–
